Laboratory results reported in US9828351B2, “Enzyme interacting agents” (MONASH UNIVERSITY, priority 2014, dated 2017).

Experiments:
[1] = biological target: T1, recombinant his tagged human SphK1 (Homo sapiens, UniProt Q9NYA1); test: SphK1 activity assay (32P-labelled S1P production); format: biochemical; conditions: 10 μM compound; % of activity compared to control (DMSO vehicle only)
T1 construct: His tag; made in house; host or cells: insect cells (baculovirus system)
Method: (§1) The SphK assays employed, measure SphK activity through the production of ^32P-labelled S1P following the addition of exogenous Sph and [γ^32P] ATP.
(§2) Activities of SphK1 and SphK2 were determined using identical assay conditions with the exception that SphK1 assays used 3 ng/assay recombinant his tagged human SphK1 (made in the lab in a baculovirus system using insect cells), while SphK2 assays used 30 ng/assay recombinant human SphK2 (purchased by Johnson and Johnson).
(§3) Compounds were dissolved in DMSO at 10 mM, the mixture was vortexed (and sonicated if necessary). Stock solutions were kept at 4° C. until used.
(§4) Aliquots were made containing 100 μM drug compound. These aliquots were then diluted in assay buffer: 100 mM tris/HCl pH 7.4, 100 mM NaCl, 1 mM sodium orthovanadate, 10 mM NaF to make up a 10 μM solution.
(§5) Recombinant enzyme was diluted in assay buffer (above) to make up a final concentration of 0.03 ng/μL (SphK1) or 0.33 ng/μL (SphK2).
(§6) 40 μL recombinant enzyme was added to an Eppendorf® Safe-Lock® microcentrifuge tube. This was followed by the addition of drug compound from prepared aliquots, before adding ATP, [γ^32P]ATP and Sph. Note: ATP stock is made up in 1M Tris pH 7.4 and 200 mM MgCl2. This allows ATP to complex with Mg and be available as a substrate.
(§7) The rest of the reaction mixture was then added to the enzyme sample (Table 1). All reactions were performed as triplicates.
(§8) Reaction mixture was prepared with sufficient volume to assay all of the required samples. To do this, each of the volumes shown was multiplied by n+1, where n is the number of samples to be assayed. Assay buffer used is made up of 100 mM tris/HCl pH 7.4, 100 mM NaCl, 1 mM sodium orthovanadate and 10 mM NaF.
(§9) The mixture was then incubated at 37° C. for 20 min (SphK1)/45 min (SphK2).
(§10) To the 100 μL assay mixture, add 270 μl of chloroform/methanol/conc. HCl (100:200:1).
(§11) 20 μL of 5 M KCl was then added to the assay mixture.
(§12) 70 μL of chloroform was added to create phase separation. The solution was vortexed to mix well.
(§13) The solution was then centrifuged for 5 min at 13,000×g to fully separate the phases.
(§14) The upper aqueous/methanol phase was separated by aspiration.
(§15) 50 μL of the remaining lower chloroform phase […] was applied onto the TLC plate by repeatedly spotting a few microliters of liquid (<5 mm diameter circle) between each sample spot with the pipette tip. The liquid was then allowed to absorb into the plate before drying with a stream of air.
(§16) The TLC plate was developed in a glass TLC developing tank with 1-butanol/ethanol/glacial acetic acid/H2O (8:2:1:2) until the mobile phase is within 1 cm of the top of the TLC plate.
(§17) The TLC plate was then exposed to a storage phosphor screen overnight. Storage phosphor screens work by capturing images produced by ionising radiation (e.g. ^32P). The phosphorimager stimulates the screen which uses lasers to convert the latent signal to light. Light is proportional to the amount of radioactivity in the sample. The image is then quantified using standard quantification software (ImageQuant™). Whatman paper with the assay mixture dilutions, was included to assist quantification of the phosphor signal.
(§18) Once the storage phosphor screen was read using the phosphorimager, S1P spots, which have an Rf of 0.7 with the mobile phase employed, were quantified.
(§19) The S1P spot intensity can be converted to the amount of phosphate transferred/min/mg protein.

[2] = biological target: T2, SphK1a in Flpln-SphK1a cells (Flp-In T-Rex HEK293) (Homo sapiens, UniProt Q9NYA1); test: SphK1 proteasomal degradation study (immunoblotting); format: cell-based; conditions: 10 μM test compound, 24 h
T2 construct: expressed in transfected cells; host or cells: Flp-In T-Rex HEK293 cells, doxycycline-induced
Method: These studies were performed as previously described for the drug SKI-II (C. Loveridge et al. J. Biol. Chem. 2010, 285, 38891). […] After 24 h cells were treated with 10 μm test compound, 10 μm MG132, or both. DMSO was used as the vehicle control. After a further 24 h, cells were harvested, lysed, and subjected to SDS-PAGE and immunoblotting with anti-FLAG (Sigma), anti-ERK1/2 (Promega), or anti-a-tubulin (Abcam) antibodies.

recombinant human SphK2 = biological target: T3, recombinant human SphK2 (Homo sapiens, UniProt Q9NRA0); test: SphK2 activity assay (32P-labelled S1P production); format: biochemical; conditions: 10 μM compound; % of activity compared to control (DMSO vehicle only); read-out: SphK2% actvity at 10 μm
T3 construct: purchased Johnson and Johnson
T3 sequence (Q9NRA0 1-654): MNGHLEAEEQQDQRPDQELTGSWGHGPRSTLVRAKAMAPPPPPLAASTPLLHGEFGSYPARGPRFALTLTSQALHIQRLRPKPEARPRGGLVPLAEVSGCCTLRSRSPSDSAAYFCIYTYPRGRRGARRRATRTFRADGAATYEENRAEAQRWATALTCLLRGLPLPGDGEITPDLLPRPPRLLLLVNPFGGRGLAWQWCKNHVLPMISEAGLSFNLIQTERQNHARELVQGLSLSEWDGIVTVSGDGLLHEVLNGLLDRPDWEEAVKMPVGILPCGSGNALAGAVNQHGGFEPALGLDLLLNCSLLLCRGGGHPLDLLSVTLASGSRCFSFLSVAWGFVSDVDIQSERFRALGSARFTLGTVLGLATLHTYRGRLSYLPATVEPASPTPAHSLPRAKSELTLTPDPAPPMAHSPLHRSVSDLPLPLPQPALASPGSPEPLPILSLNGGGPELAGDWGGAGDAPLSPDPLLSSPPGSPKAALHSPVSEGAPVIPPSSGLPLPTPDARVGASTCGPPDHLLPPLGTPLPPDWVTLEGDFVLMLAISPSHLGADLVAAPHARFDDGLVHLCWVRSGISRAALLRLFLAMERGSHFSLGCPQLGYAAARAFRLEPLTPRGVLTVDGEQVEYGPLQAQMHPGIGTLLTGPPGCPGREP
Method: as §1, §2, §3, §4, §5, §6, §7, §8, §9, §10, §11, §12, §13, §14, §15, §16, §17, §18, §19

T1 sequence (Q9NYA1 whole entry): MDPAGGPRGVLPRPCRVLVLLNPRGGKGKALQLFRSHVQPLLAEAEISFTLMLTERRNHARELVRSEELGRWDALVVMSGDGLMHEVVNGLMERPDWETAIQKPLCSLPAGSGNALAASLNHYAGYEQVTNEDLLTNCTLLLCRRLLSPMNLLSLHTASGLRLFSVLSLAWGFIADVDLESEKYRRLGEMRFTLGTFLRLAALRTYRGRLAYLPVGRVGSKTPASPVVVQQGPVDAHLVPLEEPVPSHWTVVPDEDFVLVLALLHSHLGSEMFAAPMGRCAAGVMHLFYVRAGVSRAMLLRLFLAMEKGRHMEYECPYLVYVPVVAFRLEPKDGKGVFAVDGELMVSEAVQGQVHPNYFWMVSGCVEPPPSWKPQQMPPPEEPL
T2 sequence (Q9NYA1 whole entry): as above

activity at 10 µM [1]: 50 to 80%
% SphK1a degradation at 10 μM [2]: 100%
remaining activity at 10 µM (recombinant human SphK2): 80 to 100%
Compound: Oc1ccc(Nc2nc(-c3ccc(Cl)cc3)cs2)cc1 [SKI-II, reference compound]
